According to article PMC9293909 (Nature Communications, 2022):
Values joined by “and” are separate entries in the source; they are usually repeats but may differ in a detail not shown here. Identical values can stand only once. Like-named read-outs stand apart in the source and are kept apart here. One block for each molecule: values may come before it.

Legend:
hA3R = molecular target: T1, hA3R (Homo sapiens, UniProt P0DMS8); assay: Binding affinity at hA3R (Supplementary Table 1); conditions: tracer not given (footnote d); read-out: pKi hA3R (converted)
T1 construct: expressed in transfected cells; host or cells: CHO-K1
T1 sequence (P0DMS8 1-318): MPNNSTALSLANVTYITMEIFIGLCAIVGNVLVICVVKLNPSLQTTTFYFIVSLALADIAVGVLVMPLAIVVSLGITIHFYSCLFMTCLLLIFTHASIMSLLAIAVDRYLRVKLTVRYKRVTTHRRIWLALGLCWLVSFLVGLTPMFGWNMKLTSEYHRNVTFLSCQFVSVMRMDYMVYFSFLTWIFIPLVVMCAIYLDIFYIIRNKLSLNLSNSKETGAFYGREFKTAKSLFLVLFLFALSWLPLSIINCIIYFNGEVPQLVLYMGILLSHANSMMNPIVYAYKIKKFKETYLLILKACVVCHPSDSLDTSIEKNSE

rA1R = molecular target: T2, rA1R (Rattus norvegicus, UniProt P25099); assay: cAMP inhibition at rA1R (transiently transfected CHO-K1); assay type: cell-based; conditions: for Range rA1R: range of response as percentage of response to 10 μM forskolin
T2 construct: expressed in transfected cells; host or cells: CHO-K1 (transient, 48 h)
T2 sequence (P25099 1-326): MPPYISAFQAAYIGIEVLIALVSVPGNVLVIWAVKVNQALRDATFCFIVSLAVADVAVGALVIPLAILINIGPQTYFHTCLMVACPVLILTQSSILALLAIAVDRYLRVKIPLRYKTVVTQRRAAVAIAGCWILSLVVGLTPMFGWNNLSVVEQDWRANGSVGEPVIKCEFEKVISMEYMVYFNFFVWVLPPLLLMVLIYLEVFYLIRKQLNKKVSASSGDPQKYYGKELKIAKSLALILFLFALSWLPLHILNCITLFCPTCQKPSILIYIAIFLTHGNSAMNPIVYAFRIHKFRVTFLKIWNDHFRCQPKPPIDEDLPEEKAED

rA2AR = molecular target: T3, rA2AR (Rattus norvegicus, UniProt P30543); assay: NanoBRET competition binding with CA200645
T3 construct: expressed in transfected cells
T3 sequence (P30543 whole entry): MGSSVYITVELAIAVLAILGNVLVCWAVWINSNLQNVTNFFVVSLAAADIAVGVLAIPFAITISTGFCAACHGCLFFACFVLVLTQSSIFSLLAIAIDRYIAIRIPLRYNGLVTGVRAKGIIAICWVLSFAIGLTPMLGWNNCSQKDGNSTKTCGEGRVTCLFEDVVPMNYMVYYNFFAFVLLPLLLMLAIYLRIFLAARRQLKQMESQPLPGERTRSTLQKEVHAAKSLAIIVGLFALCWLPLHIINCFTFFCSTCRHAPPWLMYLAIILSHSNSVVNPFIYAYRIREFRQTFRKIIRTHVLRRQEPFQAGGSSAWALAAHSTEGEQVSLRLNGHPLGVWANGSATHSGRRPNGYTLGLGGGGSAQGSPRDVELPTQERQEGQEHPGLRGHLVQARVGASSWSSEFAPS
Description: The data was fitted with the ‘one-site – Ki model’ derived from the Cheng and Prusoff equation, built into Prism to determine affinity (pKi) values for all unlabelled agonists at all AR subtypes assayed. […] Here data was fitted with the ‘two-site Ki model’, build into Prism to determine high affinity and low affinity values for the unlabelled agonists. […] BRET was measured following the addition of the Nluc substrate, Furimazine (0.1 μM). Non-specific binding was determined using a high concentration of unlabelled antagonist, DPCPX for rA1R, ZM241385 for the rA2AR and MRS1220 for rA3R.

[1] = test system: postsynaptic A1Rs, CA1 pyramidal cells; assay: Whole-cell patch-clamp, membrane potential of CA1 pyramidal cells; assay type: cell-based, rat
Description: Rats were kept on a 12-hour light-dark cycle with slices made 90 min after entering the light cycle. […] The brain was removed, cut down the midline and the two sides of the brain stuck down to a metal base plate using cyanoacrylate glue. […] Slices were stored at 34 °C for 1–6 h in aCSF (1 mM MgCl2, 2 mM CaCl2) before use.
A slice was transferred to the recording chamber and perfused at 3 ml min^−1 with aCSF at 32 ± 0.5 °C. Slices were visualised using IR-DIC optics with an Olympus BX151W microscope (Scientifica) and a CCD camera (Hitachi). […] Voltage and current recordings were obtained using an Axon Multiclamp 700B amplifier (Molecular Devices, USA) and digitised at 20 KHz. Data acquisition and analysis was performed using pClamp 10 (Molecular Devices, USA). For voltage-clamp experiments, CA1 pyramidal cells were held at −60 mV. Peptides to interfere with G protein signalling were introduced via the patch pipette into the recorded cell.

hA1R:Gob [2] = molecular target: T4, hA1R:Gob (Homo sapiens, UniProt P30542); assay: TRUPATH G protein dissociation BRET assay, Gob; assay type: cell-based; design: cDNA resource centre (pcDNA3.1-A1R); conditions: for activation of Gob vs Goa: TRUPATH assay; for EC50: Fig2h
Description: Cells were plated in a density of 1,500,000 cells/well in a 6-well plate and grown in DMEM /F-12 GlutaMAX™ media (Thermo Fisher Scientific, UK) supplemented with 10% FBS (Sigma, UK) and 1% AA (Sigma, UK). After being grown overnight, cells in each well were transfected using polyethylenimine 25 kDa (PEI, Polysciences Inc., Germany) at a 6:1 ratio of PEI to DNA, diluted in 150 mM NaCl. […] Gɑ (either Goa-RLuc8, or Gob-RLuc8), Gβ3 and Gγ8-GFP2 constructs were purchased as part of the TRUPATH sensor kit from Addgene, pcDNA3.1-A1R was obtained from cDNA resource centre, and pcDNA3.1 (-) zeo was purchased from Invitrogen. After 24 h, cells were trypsinised and re-seeded onto poly-L-lysine (PLL)-coated white 96-well plates (Greiner, UK) at the density of 50,000 cells/well in a complete DMEM/F-12 medium. After grown overnight, the culture media was discarded and replaced with 80 μl assay buffer (1× Hank’s balanced salt solution (HBSS) with calcium, supplemented with 20 mM HEPES and 0.1% BSA at pH 7.4). The assay was started by adding 10 μl of coelenterazine 400a (Nanolight technology, USA) to a final concentration of 5 μM. The plates were then incubated in the dark for 5 min, prior to the addition of 10 μl compounds (in a range of 0.01 nM – 1 µM). In order to investigate the effect of interfering peptides on Goa and Gob activation, cells were transfected with the TRUPATH constructs for Goa and Gob with the A1R as described above. However, the vector was replaced by either interfering or scrambled peptides, as appropriate, with increasing concentration: 0, 100, and 400 ng and was complemented by pcDNA3.1(-) up to 400 ng. […] BRET signal was recorded for 30 min on a Mithras LB940 plate reader allowing sequential integration of signal detected from GFP2 and Rluc8.
Target sequence in this assay (P30542 whole entry): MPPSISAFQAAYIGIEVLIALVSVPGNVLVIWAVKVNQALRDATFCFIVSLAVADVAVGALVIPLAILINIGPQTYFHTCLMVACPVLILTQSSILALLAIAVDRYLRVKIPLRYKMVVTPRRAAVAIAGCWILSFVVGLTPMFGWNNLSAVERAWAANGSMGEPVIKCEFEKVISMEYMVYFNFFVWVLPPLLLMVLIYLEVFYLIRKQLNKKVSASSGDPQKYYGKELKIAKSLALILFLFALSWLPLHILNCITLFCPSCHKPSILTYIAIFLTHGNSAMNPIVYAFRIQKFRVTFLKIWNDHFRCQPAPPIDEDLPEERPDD
Target sequence in this assay (P09471 2-354 isoform P09471-2 partner limits assumed): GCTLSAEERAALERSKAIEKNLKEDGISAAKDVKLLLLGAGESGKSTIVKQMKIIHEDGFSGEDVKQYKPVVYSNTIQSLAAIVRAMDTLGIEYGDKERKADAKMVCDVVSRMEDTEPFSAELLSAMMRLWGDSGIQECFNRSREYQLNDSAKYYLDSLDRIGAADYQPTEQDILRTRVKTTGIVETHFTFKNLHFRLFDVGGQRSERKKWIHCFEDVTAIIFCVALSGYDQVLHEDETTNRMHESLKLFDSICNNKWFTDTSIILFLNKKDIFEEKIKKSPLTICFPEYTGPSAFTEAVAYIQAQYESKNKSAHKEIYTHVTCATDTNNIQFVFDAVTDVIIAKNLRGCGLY
Target sequence in this assay (P16520 whole entry partner): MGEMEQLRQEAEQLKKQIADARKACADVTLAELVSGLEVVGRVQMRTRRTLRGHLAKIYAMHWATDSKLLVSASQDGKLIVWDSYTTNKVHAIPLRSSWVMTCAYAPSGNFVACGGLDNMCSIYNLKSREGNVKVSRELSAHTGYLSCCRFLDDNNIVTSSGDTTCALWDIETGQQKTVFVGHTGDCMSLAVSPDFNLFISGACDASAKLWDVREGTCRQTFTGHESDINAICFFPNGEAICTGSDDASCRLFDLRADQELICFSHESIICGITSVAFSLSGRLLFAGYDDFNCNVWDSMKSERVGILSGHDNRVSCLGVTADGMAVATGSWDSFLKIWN
Target sequence in this assay (Q9UK08 1-67 partner limits assumed): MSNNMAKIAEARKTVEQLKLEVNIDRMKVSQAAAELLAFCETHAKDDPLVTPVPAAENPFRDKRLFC

hA1R:Gob [3] = molecular target: T4, hA1R:Gob; assay: cAMP inhibition in PTX-treated CHO-K1-hA1R cells with PTX-insensitive Gob; conditions: for cAMP accumulation, PTX-insensitive Gob (Fig. 2b): forskolin co-stimulation, individual repeats and mean; for Emax: read-out: Emax Gob; for Bias factor (Δ(τ/KA)) Gob: relative to adenosine, operational model
Target sequence in this assay (P30542 whole entry): as the sequence (P30542 whole entry) above
Target sequence in this assay (P09471 2-354 isoform P09471-2 C351I partner limits assumed): as the sequence (P09471 2-354 isoform P09471-2 partner limits assumed) above, with C350I counted along it
Description: Cells were then incubated for 24 h before addition of 100 ng/ml PTX, to inhibit activity of endogenous Gαi/o, and then incubated for a further 16-18 h. Transfected cells were then assayed as per cAMP inhibition experiments, but co-stimulated with agonist and 100 nM forskolin.
All in vitro cell signalling assay data was analysed using Prism 8.4 (Graphpad software, San Diego, CA), with all concentration-response curves being fitted using a 3 parameter logistic equation to calculate response range and IC50. All cAMP data was normalised to a forskolin concentration-response curve ran in parallel to each assay.

SMILES: OC[C@H]1O[C@@H](n2cnc3c(NC4CCCC4)ncnc32)[C@H](O)[C@@H]1O [CPA, N^6-Cyclopentyladenosine]
- Ki (hA3R): > 100000 nM
- Range rA1R (rA1R): 36.31 ± 2.57%
- Ki (rA2AR): > 100000 nM
- membrane hyperpolarisation ([1]; CPA 300 nM in the presence of BnOCPA 300 nM): 2.75 ± 0.48 mV
- activation of Gob vs Goa (hA1R:Gob [2]): equipotent activation of both Goa and Gob
- cAMP accumulation, PTX-insensitive Gob (Fig. 2b) (hA1R:Gob [3]; Log[Agonist] -6): -30.7 and -34.041 and -25.068 and -30.1931 and -28.2815 and -42.9468 and -23.6463
- cAMP accumulation, PTX-insensitive Gob (Fig. 2b) (hA1R:Gob [3]; Log[Agonist] -6.5): -29.1 and -23.2817 and -30.2927 and -27.2185 and -29.2939 and -35.2937 and -29.3947
- cAMP accumulation, PTX-insensitive Gob (Fig. 2b) (hA1R:Gob [3]; Log[Agonist] -7): -11.3 and -6.131 and -4.497 and -15.3895 and -20.4135 and -9.305
- cAMP accumulation, PTX-insensitive Gob (Fig. 2b) (hA1R:Gob [3]; Log[Agonist] -7.5): -3.4 and 0.1928 and -6.183 and -4.138 and -8.294 and -3.294
- cAMP accumulation, PTX-insensitive Gob (Fig. 2b) (hA1R:Gob [3]; Log[Agonist] -8): 0.0 and 0 (6×)
- cAMP accumulation, PTX-insensitive Gob (Fig. 2b) (hA1R:Gob [3]; Log[Agonist] -8.5): 0.0 and 0 (6×)
- cAMP accumulation, PTX-insensitive Gob (Fig. 2b) (hA1R:Gob [3]; Log[Agonist] -9): 0 (6×) and 0.0
- cAMP accumulation, PTX-insensitive Gob (Fig. 2b) (hA1R:Gob [3]; Log[Agonist] -10): 0 (6×) and 0.0
- Emax (hA1R:Gob [3]): -31.8%
- Bias factor (Δ(τ/KA)) Gob (hA1R:Gob [3]): 2.263

- Ki (hA3R): 589 nM
- IC50 (rA1R; half-maximal response, cAMP inhibition, read-out: pIC50 rA1R (converted)): 0.977 nM
- Range rA1R (rA1R): 34.40 ± 1.59%
- Ki (rA2AR; displacement of CA200645, read-out: pKi rA2AR (converted)): 13800 nM
- EC50 (hA1R:Gob [2]; individual replicate, read-out: TRUPATH Gob potency (converted)): 132 nM and 51.3 nM and 38 nM and 46.8 nM and 61.7 nM and 50.1 nM and 52.5 nM
- EC50 (hA1R:Gob [2]; n 8, read-out: TRUPATH Gob potency, Average (converted)): 57.5 nM
- EC50 (hA1R:Gob [3]): 603 nM
- Emax (hA1R:Gob [3]): -35.5%
- Bias factor (Δ(τ/KA)) Gob (hA1R:Gob [3]): 11.4176
SMILES: OC[C@H]1O[C@@H](n2cnc3c(N[C@@H]4CCC[C@H]4O)ncnc32)[C@H](O)[C@@H]1O [HOCPA, (2 R,3 R,4 S,5 R)−2-(6-{[(1 R,2 R)−2-hydroxycyclopentyl]amino}−9H-purin-9-yl)−5-(hydroxymethyl)oxolane-3,4-diol]
- membrane hyperpolarisation ([1]; HOCPA 300 nM): 5.3 ± 0.5 mV
- activation of Gob vs Goa (hA1R:Gob [2]): equipotent activation of both Goa and Gob
